From patent publication US6103709A (priority 1998, dated 2000) come the findings set out here.

Assay [1] has as its target T1, human vitamin D-binding protein (hDBP) (Homo sapiens, UniProt P02774).
T1 sequence (P02774 17-474): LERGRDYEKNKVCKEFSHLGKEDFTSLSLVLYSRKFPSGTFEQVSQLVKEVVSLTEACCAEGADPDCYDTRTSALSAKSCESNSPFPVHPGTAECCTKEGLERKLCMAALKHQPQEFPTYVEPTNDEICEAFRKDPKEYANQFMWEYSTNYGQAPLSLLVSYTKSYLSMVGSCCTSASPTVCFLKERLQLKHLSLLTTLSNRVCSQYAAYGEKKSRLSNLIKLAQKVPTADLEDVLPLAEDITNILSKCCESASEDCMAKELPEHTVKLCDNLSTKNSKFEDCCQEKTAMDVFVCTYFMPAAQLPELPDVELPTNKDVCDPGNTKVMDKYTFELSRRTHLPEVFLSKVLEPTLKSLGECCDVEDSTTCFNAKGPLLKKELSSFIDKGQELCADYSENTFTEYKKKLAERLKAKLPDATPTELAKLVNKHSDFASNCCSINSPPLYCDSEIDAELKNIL
The assay can be described thus: Relative Competitive Index assay, vitamin D-binding protein. Particulars: RCI of 1α,25(OH)2 D3 set to 100; 4° C., pH 7.4. An excerpt: The compared analogs are 14α,15α-methano-1α,25(OH)2 D3 (LO), 22(m(dimethylhydroxymethyl)phenyl)-23,24,25,26,27-pentanor-1α- OH-D3 (EV) and (22R)-1,25(OH)2 -22,23,diene-D3 (HR), all conformationally flexible genomic agonists. By definition the RCI for 1α,25(OH)2 D3 is set to 100%. The data seen in FIG. 7 represent the mean of three determinations.
Vitamin D-Binding Protein Assay Relative Competitive Index
This example describes a Relative Competitive Index Assay used for determination of analogs binding affinity to vitamin D-binding protein.
Phase separation was then obtained by the addition of 0.5 ml of cold dextran-coated charcoal.
The data was plotted as [competitor]/[[^3 H]25(OH)D3 ] vs. 1/[fraction bound]. The RCI was calculated as [slope of competitor]/[slopefor 25(OH)D3 ]×100. Results are seen in FIG. 7. Although each analog was assayed in competition with [^3 H]25(OH)D3, the data are expressed as relative to the binding of 1α,25(OH)2 D3, with its RCI set to 100.

In assay [2] the test system is vitamin D-deficient chick. The assay can be described thus: Bone Ca2+ mobilizing activity (BCM) in vitamin D-deficient chick. Particulars: i.m.; for Classic Vit D Responses BCM: relative to 100 pmol 1α,25(OH)2 D3 = 100%, 12 h before assay. Type of assay: in vivo. As to the method:
The bone calcium mobilizing (BCM) assay is also conducted in the vitamin D-deficient chick. The BCM assay determines the relative ability of the tested analog to mobilize bone calcium. The natural hormone 1α,25(OH)2 D3 is very potent in the BCM assay. For example, when 1α,25(OH)2 D3 in inappropriate amounts are used as a drug in human patients, the patient may become hypercalcemic and eventually hypercalciuria with nephrolithiasis and renal failure may develop. The BCM assay was used to determine the relative activity of the analogs of the invention to stimulate bone Ca^2+ mobilization.
(§1) Results of the testing of the analogs of the invention in vivo by the ICA and IBM assays are shown in FIG. 9 which illustrates the capability of analogs LO, EV and HR to stimulate intestinal Ca^2+ absorption (ICA) and bone Ca^2+ mobilizing activity (BCM). In this study, the analogs of 1α,25(OH) were given i.m. to vitamin D-deficient chicks 12 hours before the assay began. The activity produced by 100 pmol of 1α,25(OH)2 D3 was set to be 100% for both ICA and BCM. The dose of the analogs required to achieve a biological response for either ICA or BCM equivalent to the 100 pmol dose of 1α,25(OH)2 D3 was calculated and converted to a percentage. Results are expressed as mean +SE of groups of seven chicks. Each assay included a negative control (-D), that is no vitamin D was present, and a positive control, where vitamin D3 (+D3) was present in 3.25 nmol. […] 1α,25(OH)2 D3 and analogs LO [14α,15α-methano-1α,25(OH)2 D3 ], EV [22-(m(dimethylhydroxymethyl)phenyl)-23,24,25,26,27-pentanor-1α-OH-D3 ] and HR [(22R)-1,25(OH)2 -22,23-diene-D3 ] were administered in 0.0065, 0.065, 0.65 and 6.5 nmol as shown.
(§2) In Vivo Assays of Intestinal Calcium Absorption and Bone Calcium Mobilization
(§3) This example describes assays used for determination of analogs biological activity in intestinal calcium absorption (ICA) and bone calcium mobilization (BCM) assays.
(§4) ICA and BCM were measured in vivo in the vitamin D-deficient chick model system according to Biochem. Pharmacol., 18: 2347 (1969).
(§5) Twelve hours before assay, the chickens, which had been placed on a zero-calcium diet 48 h before assay, were injected intramuscularly with the vitamin metabolite 1α,25(OH)2 D3 or analog (1-10,000 pmoles) dissolved in 0.1 mL of ethanol/1,2-propanediol (1:1, v/v). At the time of assay, 4.0 mg of ^40 Ca^2+ +5 μCi of ^45 Ca^2+ (New England Nuclear) were placed in the duodenum of the birds lightly anesthetized with ether. After 30 min, the birds were decapitated and the blood was collected.
BCM activity was estimated from the increase of total serum calcium concentration, as determined by atomic absorption spectrophotometry.

A further assay deals with rapid responses (VDRmem). The assay can be described thus: Antagonist function (summary classification). Particulars: Yes/No, Tables 1 and 6. From the text: (§6) Table 6 identifies biological properties, such as genomic response, rapid response, agonist or antagonist function, binding of the analog to the vitamin binding protein (expressed as RCI), binding to the nuclear 1α,25(OH)2 D3 receptor (expressed as RCI) rapid response (expressed as % transcaltachia the rapid hormonal stimulation of intestinal calcium absorption) the classic vitamin D responses such as intestinal Ca^2+ absorption (ICA) and bone Ca^2+ mobilizing activity (BCM) determined in vivo in a vitamin D-deficient chick, and cell differentiation (expressed as % ED50), an assessment of the ability to promote the nuclear response of cell differentiation.

The test system of assay [3] is vitamin D-deficient chick. As to the kind of experiment: Intestinal Ca2+ absorption (ICA) in vitamin D-deficient chick. Type of assay: in vivo. Particulars: i.m.; for Classic Vit D Responses ICA: relative to 100 pmol 1α,25(OH)2 D3 = 100%, 12 h before assay. The procedure: A primary fundamental physiological property of vitamin D and particularly 1α,25(OH)2 D3 is its ability to stimulate the intestinal absorption of calcium and facilitate the availability of dietary calcium to the organism. Intestinal absorption of the calcium is measured by the intestinal calcium absorption (ICA) assay, developed in the model of vitamin-D deficient chicks. The ICA assay was used to determine the relative capability of the tested analog to stimulate intestinal Ca^2+ absorption.
as §1, §2, §3, §4, §5
The radioactivity content, which is a measure of ICA, of 0.2 mL of serum was measured in a liquid scintillation counter (Beckman LS8000) to determine the amount of ^45 Ca^2+ absorbed.

Another assay has as its system VDRmem. The assay can be described thus: Rapid response (summary classification). Particulars: Yes/No, Tables 1 and 6.
Source text: as §6

The test system of another assay is VDRnuc. As to the kind of experiment: Genomic response (summary classification). Particulars: Yes/No, Tables 1 and 6.
Source text: as §6

Assay [4] concerns the target T2, nuclear receptor for 1α,25(OH)2 D3 [VDRnuc] (Gallus gallus, UniProt O42392).
T2 construct: VDRnuc receptor preparation from chick intestine mucosa; from tissue; host or cells: chick intestinal mucosa
T2 sequence (O42392 1-451): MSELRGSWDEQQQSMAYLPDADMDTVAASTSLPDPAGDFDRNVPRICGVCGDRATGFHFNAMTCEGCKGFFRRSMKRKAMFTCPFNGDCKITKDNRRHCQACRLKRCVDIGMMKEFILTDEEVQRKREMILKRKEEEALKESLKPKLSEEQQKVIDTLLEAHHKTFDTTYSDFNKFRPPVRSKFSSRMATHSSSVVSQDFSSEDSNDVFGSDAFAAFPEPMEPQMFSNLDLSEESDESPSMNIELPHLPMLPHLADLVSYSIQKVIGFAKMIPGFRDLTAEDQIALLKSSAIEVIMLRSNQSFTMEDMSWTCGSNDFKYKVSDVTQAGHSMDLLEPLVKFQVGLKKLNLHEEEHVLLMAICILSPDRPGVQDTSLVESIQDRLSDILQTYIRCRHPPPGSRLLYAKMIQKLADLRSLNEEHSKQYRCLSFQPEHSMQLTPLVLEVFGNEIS
The assay can be described thus: Relative Competitive Index (steroid competition) assay, nuclear receptor VDRnuc. Type of assay: binding, chick. More on the design: key to Nuclear 1α,25-D Receptor (RCI): % relative to 1α,25(OH)2D3 binding (RCI = 100%). Particulars: RCI of 1α,25(OH)2 D3 = 100. As to the method:
The ability of analogs to mediate genomic responses are directly determined by the ability of the analog in question to bind to the nuclear receptor for 1α,25(OH)2 D3 [VDRnuc ]. This ability is detected by the assay measuring Relative Competitive Index (RCI).
The assay is based upon the principles of a steroid competition assay. A fixed amount of [^3 H]1α,25(OH)2 D3 is mixed with increasing amounts of competitive analogs or the natural hormone, 1α,25(OH)2 D3, and incubated with a VDRnuc receptor preparation from chick intestine mucosa.
Ligand Receptor Competition Assay
This example describes a ligand receptor competitive assay used for determination of an analog's relative ability to bind to VDRnuc expressed as relative competitive index (RCI).
The relative affinity of nonradioactive 1α,25(OH)2 D3 and each analog to compete with [^3 H]1α,25(OH)2 D3 for binding to the VDRnuc of NB4 cells was carried out in vitro. The NB4 cells were collected from a fast growing stage and the cellular VDRnuc of 1α,25(OH)2 D3 were extracted from KTED buffer containing 10 mM Tris-HCl, pH 7.4, 300 mM KCl, 1 mM EDTA and 5 mM DTT. After sonication, the cell extract was further centrifuged at 500× g for 10 min. The supernatant was collected for use in a ligand-receptor binding assay.
In this assay, increasing concentrations (10^-10 to 10^-6 M) of nonradioactive 1α,25(OH)2 D3 or the tested analogs were incubated with NB4 cell extracts in the presence of a fixed saturating amount of 1 pmole of [^3 H]1α,25(OH)2 D3. The reciprocal of the percentage of maximal binding of [^3 H]1α,25(OH)2 D3 was then calculated and plotted as a function of the relative analog concentration versus [^3 H]1α,25(OH)2 D3. […] The competitive index value for each analog is then normalized to the competitive index value of the […], thereby generating the value of Relative Competitive Index (RCI) where the RCI for 1α,25(OH)2 D3 is defined as 100%.
The full description of the assay is found in Methods in Enzymology: Vitamins and Co-Enzymes, Vol. 67, 494-500 , Academic Press, NY(1980); Biochem. Biophys. Res. Commun., 91: 827-834 (1979); and Endocrinology, 139(2): 457-465 (1998).

Turning to `C=C1CC[C@H](O)C/C1=C/C=C1\CCC[C@]2(C)[C@@H]([C@H](C)CCCC(C)(C)O)CC[C@@H]12` [25(OH)D3, 25-hydroxyvitamin D3, reference compound], in assay [1], the “Vit D Binding Protein (RCI)” value is 66,700.
Consider `C=C1/C(=C\C=C2/CCC[C@@]3(C)[C@@H]2CC[C@@H]3[C@H](C)CCCC(C)(C)O)C[C@@H](O)C[C@@H]1O` [GE], for which the “Classic Vit D Responses BCM” value in assay [2] was < 0.1%. Further, the Antagonist entry in the assay on rapid responses (VDRmem) is “No”. The “Classic Vit D Responses ICA” value in assay [3] was determined as 0.5%. The “Rapid Response” value in the assay on VDRmem was “Yes”. In addition, in the assay on VDRnuc, the “Genomic Response” value was “Yes”.
With `C=C1/C(=C\C=C2/CCC[C@]3(C)[C@@H]([C@H](C)CCCC(C)(C)O)CC[C@@H]23)C[C@H](O)C[C@H]1O` [HH], the Antagonist result with rapid responses (VDRmem) is listed as “Yes”. Moreover, the “Rapid Response” value in the assay on VDRmem is on record as “No”. Moreover, the “Genomic Response” value with VDRnuc is reported as “No”.
Regarding `C=C1/C(=C\C=C2/CCC[C@]3(C)[C@@H]([C@H](C)CCCC(C)(C)O)CC[C@@H]23)C[C@H](O)C[C@@H]1O` [HJ], the “Classic Vit D Responses BCM” value in assay [2] came to 1.5%. Also, the Antagonist result with rapid responses (VDRmem) is listed as “No”. The “Classic Vit D Responses ICA” value in assay [3] turned out to be 2.8%. Further, in the assay on VDRmem, the “Rapid Response” value is on record as “Yes”. In addition, the “Genomic Response” value in the assay on VDRnuc is on record as “Yes”.
In the case of `C=C1/C(=C\C=C2/CCC[C@]3(C)[C@@H]([C@H](C)C#Cc4cccc(C(C)(C)O)c4)CC[C@@H]23)C[C@@H](O)C[C@@H]1O` [IB], the Antagonist result in the assay with rapid responses (VDRmem) is recorded as “No”. The “Nuclear 1α,25-D Receptor (RCI)” value in assay [4] came to 1. The “Rapid Response” value in the assay with VDRmem is “Yes”. Further, the “Genomic Response” value with VDRnuc is reported as “Yes”.
Regarding `C=C1/C(=C\C=C2\CCC[C@]3(C)[C@@H]([C@H](C)CCCC(C)(C)O)CC[C@@H]23)C[C@@H](O)C[C@@H]1O` [JR], the “Classic Vit D Responses BCM” value in assay [2] is recorded as 0.02%. Also, in the assay on rapid responses (VDRmem), the Antagonist entry is reported as “No”. Besides, the “Classic Vit D Responses ICA” value in assay [3] was determined as 0.03%. The “Rapid Response” value in the assay on VDRmem is given as “Yes”. In the assay on VDRnuc, the “Genomic Response” value is given as “Yes”.
Consider `C=C1/C(=C/C=C2/CCC[C@]3(C)[C@@H]([C@H](C)CCCC(C)(C)O)CC[C@@H]23)C[C@@H](O)C[C@@H]1O` [JS], for which the “Classic Vit D Responses BCM” value in assay [2] was < 0.02%. In addition, the Antagonist entry in the assay with rapid responses (VDRmem) is on record as “No”. Further, the “Classic Vit D Responses ICA” value in assay [3] is < 0.02%. Moreover, the “Rapid Response” value in the assay on VDRmem is on record as “Yes”. Also, in the assay with VDRnuc, the “Genomic Response” value is “Yes”.
In the case of `C=C1CC[C@H](O)C/C1=C/C=C1\CCC[C@]2(C)[C@@H]([C@H](C)CCCC(C)C)CC[C@@H]12` [vitamin D3, 9,10-secocholesta-5,7,10(19)-trien-3β-ol, reference compound], the “BCM (in words)” value in assay [2] (vitamin D-deficient chick) was “significant at P<0.01”. The “ICA (in words)” value in assay [3] (vitamin D-deficient chick) is recorded as “significant at P<0.01”.
